The nature of the assay: Electrophysiological Assay : The following patch voltage clamp electrophysiology studies were performed on representative compounds of the invention using human embryonic kidney cells (HEK), permanently transfected with an expression vector containing the full-length cDNA coding for the desired human sodium channel α-subunit, grown in culture media containing 10% FBS, 1% PSG, and 0.5 mg/mL G418 at 37° C. with 5% CO2. […] Nav1.7 and Nav1.5 cDNAs (NM_002977 and AC137587; SCN5A, respectively) were stably expressed in HEK-293 cells. The β1 subunit was coexpressed only in the Nav1.7 cell line. In kind it is cell-based.

As usually defined, the IC50 is the concentration needed to halve the response being measured. Low values mean higher potency, high ones lower potency. Take `O=S(=O)(Nc1ncns1)c1cc(F)c(OC[C@@H]2CNCC[C@H]2c2ccc(F)c(C(F)(F)F)c2)cc1F` (relative stereo): the 50% inhibitory concentration (IC50) was 0.071 µM.

Source of the values: ChEMBL document CHEMBL5726194, “Benzenesulfonamide compounds and their use as therapeutic agents” (2017).
